This note sets out measurements from patent EP2209388B1, “SACRIFICIAL ANTIOXIDANT” (Borregaard AS, priority 2007, dated 2009).

Series [1] can be described thus: Peroxynitrite test (total antioxidant effect), antioxidant screening. The series is classed as biochemical. The settings on record: comparison in words of the scores of table 3. The text has this: To assess and verify the effect of lignosulfonate as antioxidant several lignosulfonic samples have been tested in different antioxidant screenings. Table 3. Samples tested for antioxidant effect. Five types of lignosulfonates were investigated; sodium lignosulfonate, a desulfonated oxidized lignosulfonate, and three fractions of a sodium lignosulfonate; low, medium and high molecular weight. […] The desulfonated oxidized lignosulfonate had the best antioxidant effect compared to the sodium lignosulfonate samples. […] As a comparison the synthetic antioxidant Ethoxyquin, gave the highest score in the test.

Series [2] in a line: Autoxidation of rosmarinic acid with oxygen at 65°C with/without lignosulfonate (Example 3), reversed-phase HPLC-UV 280 nm. The series is classed as physicochemical. Further details: unit not given here. The text has this:
The combined effect of lignosulfonate was in addition shown in autoxidation experiments using two different lignosulfonates and rosmarinic acid as a representative for a different antioxidant. […] In parallel the same concentration of antioxidant, rosmarinic acid 1%, was supplemented with lignosulfonate. The tested lignins were a sodium lignosulfonate (LS 1) and a calcium lignosulfonate (LS 2), both added in the same amounts based on dry content (17%). Samples were withdrawn daily and the amount of remaining antioxidant was chromatographically quantified. Reversed-phase HPLC with UV-detection at 280 nm was the method of choice for monitoring the positive effect of LS.

The structures appear in SMILES notation.

For the compound `CCOc1ccc2c(c1)C(C)=CC(C)(C)N2` [Ethoxyquin, 1,2-dihydro-6-etoxy-2,2,4-trimetylquinoline], the antioxidant effect result in series [1] is recorded as “highest score”.

Consider `Cc1cc(C(C)(C)C)c(O)c(C(C)(C)C)c1` [BHT, 2,6-di-tert-butyl-4-methylphenol], for which the antioxidant effect result in series [1] is reported as “scored lowest”.

Take `O=C(/C=C/c1ccc(O)c(O)c1)O[C@H](Cc1ccc(O)c(O)c1)C(=O)O` [Rosmarinic acid]: the “Autoxidation of rosmarinic acid (amount of remaining antioxidant)” value in series [2] (Day 0, rosmarinic acid 1%, lignosulfonate 17% dry content) is listed as 100; in series [2] (Day 1), 72; in series [2] (Day 2), 45; in series [2] (Day 3), 11; in series [2] (Day 4), 2; in series [2] (Day 4, listed as rosmarinic acid) it was “completely degraded”.
